One test deals with p-ERK. The test is described as follows: Immunoblot of ERK phosphorylation, U373MG cells. The test is classed as cell-based, human. Particulars: PD treatment, 24 hours. Here is the method: FIGS. 10A to 10D show the results that PD-mediated autophagy inhibition is independent of mTOR and MAPK signaling pathways. FIGS. 10A to 10C show the results in which cells were treated with PD (0 μM, 0.5 μM, 1 μM, 5 μM, and 10 μM) for 24 hours. The immunoblot analyses for p-ULK1 (Ser757), ULK1, p-S6K (Thr389), p-AKT (Ser473), ERK2, P-ERK, p-JNK1, Beclin, and ATG7 were performed using lysates from GBMs. […] Total protein extracts were analyzed by immunoblot analyses for p-ERK, LC3B, and SQSTM1. GAPDH was used as an internal control.
Cells treated with the concentrations and materials described in FIGS. 1-3B, 7, 8, 10, 13, 16, 18, and 20 were lysed in buffer containing 20 mM Tris-HCl (pH 7.5), 150 mM NaCl, 1 mM EDTA, 1 mM Na2EDTA, 1 mM EGTA, 1% NP-40, 1% sodium deoxycholate, 1 mM Na3VO4, 1 mM MPI, 1 mM PMSF, and PI cocktails for 15 to 20 minutes on ice. Cell lysates were separated by SDS-PAGE and transferred to nitrocellulose membranes. […] The protein bands were detected with ECL western Blotting Substrate (Thermo Fisher Scientific, Waltham, Mass., USA).
Previous studies have shown that PD enhances autophagy via mTOR/MAPK pathway. […] It is known that mTORC1 activation, measured by S6K phosphorylation, inhibits autophagy initiation by phosphorylating the ULK1 (Ser 757). […]

Test [1] has as its system U87MG and U373MG cells. The test is described as follows: Cell morphology (vacuole formation) under optical microscope, GBM cells. The test is classed as cell-based, human. The following applies: 10 μM PD, 24 hours. Here is the method: (§1) FIGS. 6A and 6B show the results that PD induces a decrease in cell viability and vacuole formation. […] Data shown represent the means of quintuplicate measurements which were repeated three times. The results are presented as a percentage of control (means±SD).
(§2) Inhibition of autophagy has been reported to cause cancer cell death. Therefore, the cytotoxic effects of PD on U87MG, U373MG, and normal astrocytes were examined. After treating these cells with various doses of PD for 48 hours, their cell viability was analyzed by WST1 assays. […] As can be confirmed in FIG. 6B, morphological changes were also visualized by an optical microscope after exposure of GBM cells to 10 μM PD for 24 hours.

The test system of another test is normal human astrocytes. Put plainly: WST1 cell viability assay, normal astrocytes. Particulars: normal human astrocytes vs GBM cells, 48 hours. Type of test: cell-based. The protocol:
as §1
Cell cytotoxicity was assessed by WST1 assay. U87 and U373 cells were each seeded in a 96-well plate (5×10^3 cells/well) and treated with different concentrations of platycodin D (PD). Then, cells were incubated with a WST1 reagent (Dogen, Seoul, Korea) for 2 hours before reading the plate. Absorbance was measured at 450 nm using an ELISA reader (Versa Max, Molecular Devices, Sunnyvale, Calif., USA).
as §2

Another test has as its system SQSTM1 mRNA. The test is described as follows: RT-PCR of SQSTM1 (p62) mRNA in GBM cells. The test is classed as cell-based, human. The following applies: PD 5 μM and 10 μM, 24 hours, both GBM cells. The protocol:
FIGS. 3A to 3C show the results that PD inhibits autophagic flux in GBM cells. […] The expression of LC3B and SQSTM1 was confirmed by immunoblot analysis. […] GAPDH was used as a loading control.
Total RNA was isolated using the Easy-Blue RNA extraction kit (iNtRON Biotech, Sungnam, Korea) according to the manufacturer's directions. 1 μg of the total RNA was reverse transcribed using a cDNA synthesis kit (TaKaRa, Otsu, Shinga, Japan) according to the manufacturer's instructions. The obtained cDNA was then amplified by PCR in a reaction mixture consisting of 10× Taq buffer, 2.5 mM dNTP mixture, Taq DNA polymerase (Takara), and corresponding primer sets. The primer sequences were as follows. Human SQSTM1-forward: 5′-GAACTCCAGTCCCTACAGATGCC-3′ (SEQ ID NO: 1), SQSTM1-reverse: 5′-CGGGAGATGTGGGTACAAGG 2-3′ (SEQ ID NO: 2); Human LDLR-forward: 5′-CAG ATA TCA TCA ACG AAG C-3′ (SEQ ID NO: 3), LDLR-reverse: 5′-CCTCTCACACCAGTTCACTCC-3′ (SEQ ID NO: 4); Human GAPDH-forward: 5′-CGTCTTCACCACCATGGAGA-3′ (SEQ ID NO: 5), GAPDH—reverse: 5′-CGGCCATCACGCCACAGTTT-3′ (SEQ ID NO: 6). The PCR products were analyzed by 1.5% agarose gels.

The test system of test [2] is U87MG and U373MG cells. Put plainly: mRFP-GFP-LC3 tandem reporter (autolysosome formation) in GBM cells. The following applies: PD 10 μM or Rapa 1 μM, 24 hours. Type of test: cell-based, human. The protocol: Cells stably expressing mRFP-GFP-LC3 were incubated with PD (10 μM) or Rapa (1 μM) for 24 hours, and then analyzed by confocal microscopy. The merged images (yellow) show an overlap between GFP-LC3 (green) and mRFP-LC3 (red). The panels on the right are higher-magnification images of the boxed regions.
In order to examine whether PD induces accumulation of autophagosomes by inhibiting their maturation into autolysosomes, a tandem-tagged fluorescent reporter, mRFP-GFP-LC3, was used. The GFP fluorescence of the fusion protein is rapidly quenched in lysosomal acidic conditions, whereas the RFP fluorescence is relatively stable. The yellow dots in the merged image are indicative of autophagsomes and […] dots correspond to autolysosomes. The mRFP-GFP-LC3 plasmids were transfected into U87MG and U373MG cells, treated with PD for 24 hours, and subjected to confocal microscopy.

Regarding `C[C@@H]1O[C@@H](O[C@H]2[C@H](OC(=O)[C@]34CCC(C)(C)C[C@H]3C3=CC[C@@H]5[C@@]6(C)C[C@H](O)[C@H](O[C@@H]7O[C@H](CO)[C@@H](O)[C@H](O)[C@H]7O)C(CO)(CO)[C@@H]6CC[C@@]5(C)[C@]3(C)C[C@H]4O)OC[C@H](O)[C@@H]2O)[C@H](O)[C@H](O)[C@H]1O[C@@H]1OC[C@@H](O)[C@H](O[C@@H]2OC[C@](O)(CO)[C@H]2O)[C@H]1O` [PD, platycodin D], the “phosphorylation levels of ERK” value in the test with p-ERK is reported as “markedly increased”. For the same molecule, the “cell morphology (cytoplasmic vacuoles)” value in the test on U87MG and U373MG cells [1] was “exhibited cytoplasmic vacuoles”. Moreover, in the test on normal human astrocytes, the “PD-mediated reduction in cell viability” value is “less effective”. For the same molecule, the “p62 mRNA levels” value in the test with SQSTM1 mRNA is “did not alter”. In addition, in the test on U87MG and U373MG cells [2], the “mRFP and GFP dots of mRFP-GFP-LC3” value was “GFP-positive dots were retained and colocalized with mRFP dots”.

These data come from patent US11351218B2, “Composition for preventing or treating glioblastoma comprising Platycodon grandiflorum A. De Candolle, Scutellaria baicalensis, Phellodendron amurense Ruprecht or Rubus coreanus” (University-Industry Cooperation Group of Kyung Hee …, priority 2019, dated 2022).
